# Assay results as given in patent publication US20260008801A1, “BIO-BASED SURFACTANTS DERIVED FROM CARBOHYDRATES” (COÖPERATIE KONINKLIJKE COSUN U.A., priority 2022, published 2026).
# Experiment: Solubility in water (excess of compound in 4 ml demi water)
# Type: physicochemical
# Settings: not given
# Procedure: Solubility is preferably solubility in aqueous solution, more preferably solubility in water, most preferably solubility in demineralised water. A skilled person knows how to assess such solubility.
# Solubility in water was determined by preparing mixtures of an excess of compound dispersed in 4 ml demi water using a vortex at maximum speed for 1 min. […] 1 ml of the mixture was concentrated in vacuo to yield a solid. The mass of the solid was determined in mg to calculate the solubility in percentage by dividing by ten.
row,"solubility in water, in words",Compound
1,poorly soluble,"CCCCCCCCNC(=O)[C@H](O)[C@@H](O)[C@@H](O)CO [Compound 03, 1-(N-octyl)-L-arabinonamide]"
2,poorly soluble,"CCCCCCCCCCNC(=O)[C@H](O)[C@@H](O)[C@@H](O)CO [Compound 04, 1-(N-Decyl)-L-arabinonamide]"
3,well soluble,"CCCCCCCCN(C)C(=O)[C@H](O)[C@@H](O)[C@@H](O)CO [Compound 17, N-methyl-N-octyl-L-arabinonamide]"

# Same assay, conditions: Table E3, N-alkylated compounds
row,SOLUBILITY (H2O),Compound
1,Soluble,"CCCCCCCCN(C)C(=O)[C@H](O)[C@@H](O)[C@@H](O)CO [Compound 17, N-methyl-N-octyl-L-arabinonamide]"

# Same assay, conditions: Table E6, N-oxide compounds, in Salt form
row,SOLUBILITY (H2O),Compound
1,19%,"CCCCCC[N+](C)([O-])C[C@H](O)[C@@H](O)[C@@H](O)CO (stereo partly drawn) [Compound 38, N-methylhexyl-L-arabinonamine oxide]"

# Same assay, conditions: Table E8
row,Solubility (%),Compound
1,19%,"CCCCCC[N+](C)([O-])C[C@H](O)[C@@H](O)[C@@H](O)CO (stereo partly drawn) [Compound 38, N-methylhexyl-L-arabinonamine oxide]"

# Experiment: Foaming abilities, 1% compound solutions shaken by hand
# Type: physicochemical
# Design: key to FOAM: −: no foam formation; +: low foam formation; ++: moderate foam formation; +++: strong foam formation
# Settings: not given
# Procedure: Foaming abilities were evaluated at room temperature by shaking 1% compound solutions (2 ml) of pH 3, 7, and 12 by hand for 10 s. The pH of each solution was assessed with a pH meter at room temperature. […] The foam heights at the initial time were compared to one another after which the foaming abilities were classified according to no foam formation (−), low foam formation (+), moderate foam formation (++), and strong foam formation (+++).
row,"foaming behaviour / foam creation, in words",Compound
1,good foaming behaviour,"CCCCCCCCN(C)C(=O)[C@H](O)[C@@H](O)[C@@H](O)CO [Compound 17, N-methyl-N-octyl-L-arabinonamide]"

# Same assay, conditions: Table E1
row,FOAM,Compound
1,−,"CCCCCCCCNC(=O)[C@H](O)[C@@H](O)[C@@H](O)CO [Compound 03, 1-(N-octyl)-L-arabinonamide]"
2,−,"CCCCCCCCCCNC(=O)[C@H](O)[C@@H](O)[C@@H](O)CO [Compound 04, 1-(N-Decyl)-L-arabinonamide]"

# Same assay, conditions: Table E3
row,FOAM,Compound
1,++,"CCCCCCCCN(C)C(=O)[C@H](O)[C@@H](O)[C@@H](O)CO [Compound 17, N-methyl-N-octyl-L-arabinonamide]"

# Same assay, conditions: Table E6, in Salt form
row,FOAM,Compound
1,−,"CCCCCC[N+](C)([O-])C[C@H](O)[C@@H](O)[C@@H](O)CO (stereo partly drawn) [Compound 38, N-methylhexyl-L-arabinonamine oxide]"

# Experiment: Foaming power and stability, Ultra-Turrax, 0.4% aq. surfactant
# Type: physicochemical
# Settings: Table E8; after 1 min
# Procedure: Foaming power was also tested at room temperature with 5 mL of 0.4% aq. surfactant (20 mg) solution in a 50 mL measuring cylinder. After performing the Ultra-Turrax (a registered trademark for a high-performance dispersing instrument) for 20 seconds (8000 rpm), the initial height of the foam was measured for foam height. (volume in mL). Every time step of, 1, 3, 5, 10, 30, 60 minutes was noted. In addition, after 24 hours the stability was checked. Particularly, foaming power and stability of the surfactants were performed using an IKA Ultra-Turrax T25 with an 18 G dispersing element. At room temperature, an aqueous solution of 5 mL 0.4% surfactant in a 50 mL measuring cylinder (2.20 cm diameter) was mixed with the Ultra-Turrax for 20 seconds at 8000 rpm. The foam height (volume in mL) was denoted for 0, 1, 3, 5, 10, 30, 60 min and 24 hours. In addition, after 24 hours the stability was checked.
row,Foamability 1 min,Compound
1,0.5 mL,"CCCCCC[N+](C)([O-])C[C@H](O)[C@@H](O)[C@@H](O)CO (stereo partly drawn) [Compound 38, N-methylhexyl-L-arabinonamine oxide]"

# Same assay, conditions: Table E8; after 5 min
row,Foamability 5 min,Compound
1,0 mL,"CCCCCC[N+](C)([O-])C[C@H](O)[C@@H](O)[C@@H](O)CO (stereo partly drawn) [Compound 38, N-methylhexyl-L-arabinonamine oxide]"

# Same assay, conditions: Table E8; after 30 min
row,Foamability 30 min,Compound
1,0 mL,"CCCCCC[N+](C)([O-])C[C@H](O)[C@@H](O)[C@@H](O)CO (stereo partly drawn) [Compound 38, N-methylhexyl-L-arabinonamine oxide]"

# Experiment: Surface tension measurements, Wilhelmy plate (surface tension, CMC)
# Type: physicochemical
# Settings: Table E6, in Salt form
# Procedure: Surface tension measurements were performed with a Biolin Scientific Sigma701 automatic tension meter equipped with a Wilhelmy plate made of platinum (±0.5 mN/m). […] The number of experimental points is related to the compound's/surfactant's solubility and available quantity. All compound/surfactant solutions were allowed to stand 12 h before being measured. The platinum plate was thoroughly cleaned with demi water and flame-dried before each measurement. The CMC of each compound/surfactant was determined at the minimum of a breakpoint of a conventional plot of surface tension versus compound/surfactant concentration. DCMC was obtained by acquiring the surface tension at the CMC. The pC20 value was determined by taking the minus log of the concentration compound/surfactant at a surface tension of 52 mN/m.
CMC (%),SURFACE TENSION,Compound
1.60%,49.275 mN/m,"CCCCCC[N+](C)([O-])C[C@H](O)[C@@H](O)[C@@H](O)CO (stereo partly drawn) [Compound 38, N-methylhexyl-L-arabinonamine oxide]"

# Same assay, conditions: Table E8
CMC (%),Surface tension (nM/m),Compound
1.30%,53.59 mN/m,"CCCCCC[N+](C)([O-])C[C@H](O)[C@@H](O)[C@@H](O)CO (stereo partly drawn) [Compound 38, N-methylhexyl-L-arabinonamine oxide]"

# Experiment: Solubility in media other than water (methanol, ethyl acetate, oils, 3:1 EtOH/H2O)
# Type: physicochemical
# Settings: 3:1 ethanol water ratio
row,Solubility in 3:1 EtOH/H2O,Compound
1,soluble,"CCCCCCCCNC(=O)[C@H](O)[C@@H](O)[C@@H](O)CO [Compound 03, 1-(N-octyl)-L-arabinonamide]"

# Same assay, conditions: Table E1; cell names the medium in which the compound is soluble
row,SOLUBILITY (H2O): medium named in the cell instead of water,Compound
1,In oil,"CCCCCCCCCCNC(=O)[C@H](O)[C@@H](O)[C@@H](O)CO [Compound 04, 1-(N-Decyl)-L-arabinonamide]"

# Same assay, conditions: Table E1; cell names the medium in which the compound is soluble; in 3:1 ethanol/water
row,SOLUBILITY (H2O): medium named in the cell instead of water,Compound
1,3:1 EtOH/H2O &,"CCCCCCCCNC(=O)[C@H](O)[C@@H](O)[C@@H](O)CO [Compound 03, 1-(N-octyl)-L-arabinonamide]"

# Same assay, conditions: Table E1; cell names the medium in which the compound is soluble; in oil
row,SOLUBILITY (H2O): medium named in the cell instead of water,Compound
1,in oil,"CCCCCCCCNC(=O)[C@H](O)[C@@H](O)[C@@H](O)CO [Compound 03, 1-(N-octyl)-L-arabinonamide]"

# Same assay, conditions: diverse oils
row,"solubility in diverse oils, in words",Compound
1,soluble,"CCCCCCCCNC(=O)[C@H](O)[C@@H](O)[C@@H](O)CO [Compound 03, 1-(N-octyl)-L-arabinonamide]"
2,soluble,"CCCCCCCCCCNC(=O)[C@H](O)[C@@H](O)[C@@H](O)CO [Compound 04, 1-(N-Decyl)-L-arabinonamide]"

# Same assay, conditions: methanol
row,"solubility in methanol, in words",Compound
1,well soluble,"CCCCCCCCN(C)C(=O)[C@H](O)[C@@H](O)[C@@H](O)CO [Compound 17, N-methyl-N-octyl-L-arabinonamide]"
